A short description of data set [1]: IAsys optical biosensor, affinity of avidin and avidin mutants towards 2-iminobiotin. It counts as binding. Here is the method: Reversibility of biotin binding was measured for avidin and the mutants with an IAsys optical biosensor (Laitinen, O. H. et al., FEBS Lett 461 (1999), 52-8). Protein samples were allowed to bind to a biotin-aminosilane cuvette in PBS containing 1 M NaCl. After the equilibrium was reached, biotin-containing buffer was added and the dissociation of the proteins was monitored. The affinities of the proteins towards 2-iminobiotin were determined with an IAsys optical biosensor (Marttila, A. T. et al. FEBS Lett 441 (1998), 313-7). Biotin-binding activity of the mutants Avd-ci and Avd-ccci after heat treatment was studied with a microtiter plate assay. Protein samples, 5 μg/ml concentration in PBS, were heated for various time periods at 99.9° C. and then chilled on ice. The samples were transferred to a Nunc Maxisorp-plate and incubated at 37° C. for 2 h. The wells were washed three times with PBS-Tween (0.05% v/v). After that the wells were blocked with PBS containing 1% BSA at 37° C. for 30 minutes and washed again with PBS-Tween. Next, biotinylated alkaline phosphatase (Sigma) in PBS, 1% BSA was added and incubated at 37° C. for one hour. Once again, the wells were washed with PBS-Tween and the PNPP substrate in DEA buffer (1 mg/ml) was applied to the wells. The absorbances at 405 nm were measured after incubation for 45 minutes.

A short description of data set [2]: Differential scanning calorimetry of the avidin mutants. It counts as physicochemical. The conditions noted are these: DSC, 100 mM Na-phosphate buffer pH 7.4. Here is the method:
In order to study the thermal stability of the purified avidin mutants, they were subjected to analysis by differential scanning calorimetry. A Nano II differential scanning calorimeter (Calorimetric Science Corporation, Provo, Utah) was used. […] The reference cell was filled with the same buffer that the sample proteins were dissolved in (100 mM Na-phosphate buffer pH 7.4). The thermograms were recorded as a function of temperature, between 25 and 130° C. at a temperature scan rate of 55.6° C./h. The baselines were subtracted and the transition midpoints (Tm) of the samples were calculated using proprietary software provided by the instrument manufacturer.

The nature of data set [3]: Non-reducing SDS-PAGE thermostability, oligomeric forms after boiling. The class given is physicochemical. The conditions noted are these: boiled 20 minutes. How it is done:
The heat stability of the AVRs was studied by using an SDS-PAGE-based method (Bayer, E. A., Ehrlich-Rogozinski, S. and Wilchek, M. (1996) Electrophoresis 17, 1319-1324). In this method, each protein sample was divided into two fractions one of which was kept biotin-free and the other was supplemented with an excess of biotin. The samples were then mixed with denaturing SDS-PAGE sample buffer (containing β-mercaptoethanol) and incubated at a given temperature for 20 minutes. After heat treatment, the samples were subjected to SDS-PAGE and visualised by staining with Coomassie brilliant blue. The relative proportions of tetrameric and monomeric forms of the AVR proteins (with avidin as the control) were detected. A similar assay, with β-mercaptoethanol omitted from the sample buffer, was performed to examine the presence of intersubunit disulfide-bridges. Sensitivity to proteinase K was studied both in the absence and in the presence of biotin as described (Laitinen, O. H., Airenne, K. J., Marttila, A. T., Kulik, T., Porkka, E., Bayer, E. A., Wilchek, M. and Kulomaa, M. S. (1999) FEBS Lett. 461, 52-8). The isoelectric point of each AVR was determined by isoelectric focusing as previously reported (Marttila, A. T., Airenne, K. J., Laitinen, O. H., Kulik, T., Bayer, E. A., Wilchek, M. and Kulomaa, M. S. (1998) FEBS Lett. 441, 313-317). […]

Data set [4] is described as follows: Differential scanning calorimetry of avidin and AVR4/5 forms. The class given is physicochemical. Here is the method:
The thermodynamics of the heat-induced unfolding of the proteins were studied using DSC. The transition midpoint of heat-induced denaturation (Tm) of the avidin and different AVR4/5 forms was studied using a Nano II differential scanning calorimeter (Calorimetric Sciences Corporation, Provo, Utah, USA). The reference cell was filled with buffer whereas the sample cell was filled with proteins dissolved in 50 mM sodium phosphate buffer, pH 7.0 containing 100 mM NaCl. Avidin and AVR4/5(C124S) were also analyzed in 50 mM Na-acetate pH 4.0 containing 100 mM NaCl. Furthermore, AVR4/5 was analyzed in the presence of 2-mercaptoethanol (0.4% v/v). The samples (1.6-9.6 μM) were analyzed both in the absence and presence of a three fold molar excess of biotin/subunit. All samples were degassed before being loaded into the DSC. The thermograms were recorded as a function of temperature; between 25 and 130° C. at a rate of 55.6° C./h (Gonzalez, M., Argarana, C. E. & Fidelio, G. D. (1999) Biomol. Eng. 16, 67-72; Nordlund, H. R., Laitinen, O. H., Uotila, S. T., Nyholm, T., Hytönen, V. P., Slotte, J. P. & Kulomaa, M. S. (2003) J. Biol. Chem. 278, 2479-2483). Data was analyzed using Microcal Origin 6.0 and Cpcalc 2.1 (Applied Thermodynamics, Hunt Valley, Md.). The change in heat capacity upon unfolding (ΔCp) was measured for avidin and AVR4/5(C124S) using DSC data from measurements in pH 4.0 and 7.0. ΔCp was then obtained from the slope of ΔH vs. Tm (Liu, Y. & Sturtevant, J. M. (1996) Biochemistry 35, 3059-3062).
For orientation: In DSC, transitions show as peaks or steps in heat flow.

For data set [5] the following is noted: 2-iminobiotin cuvette, cited from earlier work.
The conditions of data set [6]: biotin cuvette; avidin values from literature; cited from earlier work.
The conditions of data set [7]: 2-iminobiotin surface, values from Hytönen 2003, cited from earlier work.
For data set [8] the following is noted: biotin cuvette; values from Hytönen 2003; cited from earlier work.

Where two headings read alike, the source gives them in different places.

The Kd is the free concentration of one partner at which half of the binding sites on the other are occupied at equilibrium, for simple one-to-one binding. For orientation: ΔTm means the change in melting temperature against a reference sample. In the case of “wt Avidin: Wild-type chicken avidin (SEQ ID NO 1), purified from chicken egg-white [reference compound]”, the dissociation constant Kd was 25 nM in data set [1]; 17 nM in data set [5] (avidin values from Laitinen 2002 / Marttila 2000, read-out: Kd calculated from the equilibrium response data); 20 nM in data set [5] (avidin values from literature, read-out: Kd calculated directly from the binding curves); 34 nM in data set [7] (read-out: Kd detected directly from the binding curves); 22 nM in data set [7] (read-out: Kd detected from the equilibrium response data). For the same substance, the values for the Tm in data set [2] (+ biotin (biotin:avidin molar ratio 3:1)) and in data set [2] (without biotin) were 118.2 ± 0.1 °C and 85.5 ± 0.1 °C, respectively. Also, in data set [3], the “Monomeric form, relative proportion” value was 100 percentage. Moreover, the “Tm at pH 4” value in data set [4] (50 mM Na-acetate pH 4.0, 100 mM NaCl) is 76.6±0.2 °C. Further, in data set [4] (50 mM sodium phosphate pH 7.0, 100 mM NaCl), the “DSC Tm(−biotin)” value worked out at 83.5 ± 0.1 °C. Further, the ΔTm in data set [4] (change in Tm upon addition of a three-fold molar excess of biotin) turned out to be 33.5 °C. In data set [4] (sample without biotin), this substance returned a ΔH of unfolding of 78.6 ± 1.2 kcal/mol. The “ΔCp (change in heat capacity upon unfolding)” value in data set [4] (slope of ΔH vs. Tm, DSC at pH 4.0 and 7.0) was 0.00366 kcal/mol. In addition, the “DSC Tm (+biotin)” value in data set [4] (three-fold molar excess of biotin, pH 7.0) was 117.0 ± 0.7 °C. Further, the kass entry was “(1.6 ± 0.7) × 10^4 M^−1 s^−1” in data set [5] (avidin values from literature) and “(5.5 ± 0.5) × 10^4 M^−1s^−1” in data set [7]. The “Reversibility of biotin binding” value in data set [6] is reported as 1 ± 1%. Further, the kdiss entry in data set [7] is listed as “(1.9 ± 1.4) × 10^−3 s^−1”. For the same substance, in data set [8], the “Reversibility of binding to biotin” value is recorded as 4 ± 2%.

These data come from patent US20060281899A1, “Mutants of biotin binding protein” (priority 2002, published 2006).
